Results taken from ChEMBL document CHEMBL1155039, “Synthetic antimicrobial peptidomimetics with therapeutic potential” (J Med Chem, 2008).
pEC50: −log10 of the molar value. Values after ≈ are worked out from the molar mass of the structure shown. Active and inactive are the calls of the source. The calls are words filed in the database; no cut-off is given here.

tested on: Escherichia coli; experiment: Antibacterial activity against Escherichia coli ATCC 25922; type: functional; conditions: not given

Question: For `CC(C)(C)c1cc(C(C)(C)C)c2[nH]c(C(C)(C)C)c(C[C@H](NC(=O)[C@@H](N)CCCCN)C(=O)N[C@@H](CCCNC(=N)N)C(N)=O)c2c1`, which MIC is on record?
Answer: Its MIC is 107 µM (≈ 70.2 µg/mL).

Question: With `CC(C)(C)c1cc(C(C)(C)C)c2[nH]c(C(C)(C)C)c(C[C@H](NC(=O)[C@@H](N)CCCNC(=N)N)C(=O)N[C@@H](CCCNC(=N)N)C(=O)NCc3ccccc3)c2c1` as the molecule, how does the MIC read?
Answer: Its MIC is 9.7 µM (≈ 7.51 µg/mL).

Question: With `CC(C)(C)c1cc(C(C)(C)C)c2[nH]c(C(C)(C)C)c(C[C@H](N)C(=O)N[C@@H](CCCNC(=N)N)C(=O)NCc3ccccc3)c2c1` as the molecule, how does the MIC read?
Answer: The MIC was 16 µM (≈ 9.89 µg/mL).

tested on: Staphylococcus aureus; experiment: Antibacterial activity against Staphylococcus aureus ATCC 25923; type: functional; conditions: not given

Question: For `CC(C)(C)c1cc(C(C)(C)C)c2[nH]c(C(C)(C)C)c(C[C@H](N)C(=O)N[C@@H](CCCNC(=N)N)C(N)=O)c2c1`, which MIC is on record?
Answer: The MIC was 28 µM (≈ 14.8 µg/mL).

Question: Which MIC does the source give for `COC(=O)[C@H](CCCNC(=N)N)NC(=O)[C@H](N)Cc1c(C(C)(C)C)[nH]c2c(C(C)(C)C)cc(C(C)(C)C)cc12` here?
Answer: The MIC was 28 µM (≈ 15.2 µg/mL).

Question: With `CC(C)(C)c1cc(C(C)(C)C)c2[nH]c(C(C)(C)C)c(C[C@H](NC(=O)[C@@H](N)CCCCN)C(=O)N[C@@H](CCCNC(=N)N)C(N)=O)c2c1` as the molecule, how does the MIC read?
Answer: Its MIC is 23 µM (≈ 15.1 µg/mL).

Question: With `CC(C)(C)c1cc(C(C)(C)C)c2[nH]c(C(C)(C)C)c(C[C@H](NC(=O)[C@@H](N)CCCNC(=N)N)C(=O)N[C@@H](CCCNC(=N)N)C(=O)NCc3ccccc3)c2c1` as the molecule, how does the MIC read?
Answer: Its MIC is 3.2 µM (≈ 2.48 µg/mL).

Question: With `CC(C)(C)c1cc(C(C)(C)C)c2[nH]c(C(C)(C)C)c(C[C@H](N)C(=O)N[C@@H](CCCNC(=N)N)C(=O)NCc3ccccc3)c2c1` as the molecule, how does the MIC read?
Answer: Its MIC is 4 µM (≈ 2.47 µg/mL).

tested on: Staphylococcus aureus; experiment: Antibacterial activity against methicillin-resistant Staphylococcus aureus ATCC 33591; type: functional; conditions: not given

Question: Which MIC does the source give for `CC(C)(C)c1cc(C(C)(C)C)c2[nH]c(C(C)(C)C)c(C[C@H](N)C(=O)N[C@@H](CCCNC(=N)N)C(N)=O)c2c1` here?
Answer: The MIC was 28 µM (≈ 14.8 µg/mL).

Question: Which MIC does the source give for `COC(=O)[C@H](CCCNC(=N)N)NC(=O)[C@H](N)Cc1c(C(C)(C)C)[nH]c2c(C(C)(C)C)cc(C(C)(C)C)cc12` here?
Answer: The MIC was 28 µM (≈ 15.2 µg/mL).

Question: Which MIC does the source give for `CC(C)(C)c1cc(C(C)(C)C)c2[nH]c(C(C)(C)C)c(C[C@H](NC(=O)[C@@H](N)CCCCN)C(=O)N[C@@H](CCCNC(=N)N)C(N)=O)c2c1` here?
Answer: The MIC was 23 µM (≈ 15.1 µg/mL).

Question: Which MIC does the source give for `CC(C)(C)c1cc(C(C)(C)C)c2[nH]c(C(C)(C)C)c(C[C@H](NC(=O)[C@@H](N)CCCNC(=N)N)C(=O)N[C@@H](CCCNC(=N)N)C(=O)NCc3ccccc3)c2c1` here?
Answer: Its MIC is 3.2 µM (≈ 2.48 µg/mL).

Question: With `CC(C)(C)c1cc(C(C)(C)C)c2[nH]c(C(C)(C)C)c(C[C@H](N)C(=O)N[C@@H](CCCNC(=N)N)C(=O)NCc3ccccc3)c2c1` as the molecule, how does the MIC read?
Answer: The MIC was 4 µM (≈ 2.47 µg/mL).

tested on: Staphylococcus epidermidis; experiment: Antibacterial activity against methicillin-resistant Staphylococcus epidermidis ATCC 27626; type: functional; conditions: not given

Question: Which MIC does the source give for `CC(C)(C)c1cc(C(C)(C)C)c2[nH]c(C(C)(C)C)c(C[C@H](N)C(=O)N[C@@H](CCCNC(=N)N)C(N)=O)c2c1` here?
Answer: Its MIC is 14 µM (≈ 7.39 µg/mL).

Question: For `COC(=O)[C@H](CCCNC(=N)N)NC(=O)[C@H](N)Cc1c(C(C)(C)C)[nH]c2c(C(C)(C)C)cc(C(C)(C)C)cc12`, which MIC is on record?
Answer: Its MIC is 14 µM (≈ 7.6 µg/mL).

Question: Which MIC does the source give for `CC(C)(C)c1cc(C(C)(C)C)c2[nH]c(C(C)(C)C)c(C[C@H](NC(=O)[C@@H](N)CCCCN)C(=O)N[C@@H](CCCNC(=N)N)C(N)=O)c2c1` here?
Answer: The MIC was 3.8 µM (≈ 2.49 µg/mL).

Question: For `CC(C)(C)c1cc(C(C)(C)C)c2[nH]c(C(C)(C)C)c(C[C@H](NC(=O)[C@@H](N)CCCNC(=N)N)C(=O)N[C@@H](CCCNC(=N)N)C(=O)NCc3ccccc3)c2c1`, which MIC is on record?
Answer: Its MIC is 1.3 µM (≈ 1.01 µg/mL).

Question: With `CC(C)(C)c1cc(C(C)(C)C)c2[nH]c(C(C)(C)C)c(C[C@H](N)C(=O)N[C@@H](CCCNC(=N)N)C(=O)NCc3ccccc3)c2c1` as the molecule, how does the MIC read?
Answer: The MIC was 4 µM (≈ 2.47 µg/mL).

tested on: Staphylococcus aureus; experiment: Antibacterial activity against glycopeptide intermediate-resistant Staphylococcus aureus CCUG 43316; type: functional; conditions: not given

Question: With `CC(C)(C)c1cc(C(C)(C)C)c2[nH]c(C(C)(C)C)c(C[C@H](N)C(=O)N[C@@H](CCCNC(=N)N)C(N)=O)c2c1` as the molecule, how does the MIC read?
Answer: The MIC was 57 µM (≈ 30.1 µg/mL).

Question: Which MIC does the source give for `COC(=O)[C@H](CCCNC(=N)N)NC(=O)[C@H](N)Cc1c(C(C)(C)C)[nH]c2c(C(C)(C)C)cc(C(C)(C)C)cc12` here?
Answer: Its MIC is 55 µM (≈ 29.9 µg/mL).

Question: For `CC(C)(C)c1cc(C(C)(C)C)c2[nH]c(C(C)(C)C)c(C[C@H](NC(=O)[C@@H](N)CCCCN)C(=O)N[C@@H](CCCNC(=N)N)C(N)=O)c2c1`, which MIC is on record?
Answer: Its MIC is 46 µM (≈ 30.2 µg/mL).

Question: For `CC(C)(C)c1cc(C(C)(C)C)c2[nH]c(C(C)(C)C)c(C[C@H](NC(=O)[C@@H](N)CCCNC(=N)N)C(=O)N[C@@H](CCCNC(=N)N)C(=O)NCc3ccccc3)c2c1`, which MIC is on record?
Answer: The MIC was 3.2 µM (≈ 2.48 µg/mL).

Question: Which MIC does the source give for `CC(C)(C)c1cc(C(C)(C)C)c2[nH]c(C(C)(C)C)c(C[C@H](N)C(=O)N[C@@H](CCCNC(=N)N)C(=O)NCc3ccccc3)c2c1` here?
Answer: The MIC was 8.1 µM (≈ 5 µg/mL).

tested on: Escherichia coli; experiment: Antibacterial activity against Escherichia coli ATCC 25922 upto 150 ug/mL; type: functional, organism-based; conditions: not given

Question: For `CC(C)(C)c1cc(C(C)(C)C)c2[nH]c(C(C)(C)C)c(C[C@H](N)C(=O)N[C@@H](CCCNC(=N)N)C(N)=O)c2c1`, which Activity is on record?
Answer: The Activity was “inactive”.

Question: Which Activity does the source give for `COC(=O)[C@H](CCCNC(=N)N)NC(=O)[C@H](N)Cc1c(C(C)(C)C)[nH]c2c(C(C)(C)C)cc(C(C)(C)C)cc12` here?
Answer: Its Activity is “inactive”.

tested on: not listed separately; experiment: Toxicity in human erythrocytes assessed as hemolysis; type: cell-based, Erythrocyte; conditions: not given

Question: With `CC(C)(C)c1cc(C(C)(C)C)c2[nH]c(C(C)(C)C)c(C[C@H](N)C(=O)N[C@@H](CCCNC(=N)N)C(N)=O)c2c1` as the molecule, how does the pEC50 read?
Answer: The pEC50 was 3.24.

Question: With `COC(=O)[C@H](CCCNC(=N)N)NC(=O)[C@H](N)Cc1c(C(C)(C)C)[nH]c2c(C(C)(C)C)cc(C(C)(C)C)cc12` as the molecule, how does the pEC50 read?
Answer: The pEC50 was 3.30.

Question: With `CC(C)(C)c1cc(C(C)(C)C)c2[nH]c(C(C)(C)C)c(C[C@H](NC(=O)[C@@H](N)CCCNC(=N)N)C(=O)N[C@@H](CCCNC(=N)N)C(=O)NCc3ccccc3)c2c1` as the molecule, how does the pEC50 read?
Answer: The pEC50 was 3.94.

Question: With `CC(C)(C)c1cc(C(C)(C)C)c2[nH]c(C(C)(C)C)c(C[C@H](N)C(=O)N[C@@H](CCCNC(=N)N)C(=O)NCc3ccccc3)c2c1` as the molecule, how does the pEC50 read?
Answer: Its pEC50 is 4.01.

tested on: not listed separately; experiment: Toxicity in human erythrocytes assessed as hemolysis upto 1000 ug/mL; type: cell-based; conditions: erythrocyte

Question: For `CC(C)(C)c1cc(C(C)(C)C)c2[nH]c(C(C)(C)C)c(C[C@H](NC(=O)[C@@H](N)CCCCN)C(=O)N[C@@H](CCCNC(=N)N)C(N)=O)c2c1`, which Activity is on record?
Answer: Its Activity is “Not Active”.

tested on: Pseudomonas aeruginosa; experiment: Antibacterial activity against Pseudomonas aeruginosa ATCC 27853; type: functional; conditions: not given

Question: Which MIC does the source give for `CC(C)(C)c1cc(C(C)(C)C)c2[nH]c(C(C)(C)C)c(C[C@H](N)C(=O)N[C@@H](CCCNC(=N)N)C(N)=O)c2c1` here?
Answer: Its MIC is 57 µM (≈ 30.1 µg/mL).

Question: With `COC(=O)[C@H](CCCNC(=N)N)NC(=O)[C@H](N)Cc1c(C(C)(C)C)[nH]c2c(C(C)(C)C)cc(C(C)(C)C)cc12` as the molecule, how does the MIC read?
Answer: Its MIC is 92 µM (≈ 49.9 µg/mL).

Question: For `CC(C)(C)c1cc(C(C)(C)C)c2[nH]c(C(C)(C)C)c(C[C@H](NC(=O)[C@@H](N)CCCCN)C(=O)N[C@@H](CCCNC(=N)N)C(N)=O)c2c1`, which MIC is on record?
Answer: Its MIC is 76 µM (≈ 49.9 µg/mL).

Question: With `CC(C)(C)c1cc(C(C)(C)C)c2[nH]c(C(C)(C)C)c(C[C@H](NC(=O)[C@@H](N)CCCNC(=N)N)C(=O)N[C@@H](CCCNC(=N)N)C(=O)NCc3ccccc3)c2c1` as the molecule, how does the MIC read?
Answer: Its MIC is 6.5 µM (≈ 5.03 µg/mL).

Question: With `CC(C)(C)c1cc(C(C)(C)C)c2[nH]c(C(C)(C)C)c(C[C@H](N)C(=O)N[C@@H](CCCNC(=N)N)C(=O)NCc3ccccc3)c2c1` as the molecule, how does the MIC read?
Answer: The MIC was 12 µM (≈ 7.41 µg/mL).
